These are literature values, as cited in patent US20060287500A1, “Method for synthesis of C2-symmetric diamino diol mediated by titanium complexes” (priority 2005, published 2006).

In data set [1] the target is FIV protease (Feline immunodeficiency virus, UniProt P16088). As to conditions: in vitro.
Data set [2] addresses HIV protease (Human immunodeficiency virus type 1 group M subtype B, UniProt P04585). The following applies: in vitro.
Data set [3] deals with HIV, SIV, FIV and many of the 150 different clinical mutant strains.
Data set [4] has as its system FIV. As to conditions: feline model.

For the molecule `CC(C)[C@H](NC(=O)[C@H](C)NC(=O)OCc1ccccc1)C(=O)N[C@@H](Cc1ccccc1)[C@@H](O)[C@H](O)[C@H](Cc1ccccc1)NC(=O)[C@@H](NC(=O)[C@H](C)NC(=O)OCc1ccccc1)C(C)C` [TL-3], the results for the Ki in data set [1] and in data set [2] were 0.041 µM and 0.0015 µM, respectively. Also, the “effectiveness against HIV, SIV, FIV and clinical mutant strains” value in data set [3] was “equally effective”. In data set [4], the “drug resistance developing against the inhibitor” value is recorded as “No evidence for drug resistance developing”.

Usually Ki stands for a dissociation constant, usually derived from enzyme kinetics or from competition with a known ligand.
